Test results published in the supplement of paper PMC10307832.

How the values were obtained:
Assay in all cases: relative viability (nuclei count vs DMSO), 5 days (fraction); higher = more cells survive
[1] = compound: CC1(C)CNc2cc(NC(=O)c3cccnc3NCc3ccncc3)ccc21 [Motesanib] + O=C(c1cc(Cc2n[nH]c(=O)c3ccccc23)ccc1F)N1CCN(C(=O)C2CC2)CC1 [Olaparib] (partner 8 µM)
Outline: (§1)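 Lung cancer cell lines were seeded in 1536-well plates and dosed by pin tool the next day, with either a single drug or a fixed anchor-drug dose combined with five library-drug doses (not always all listed) spaced in √10 steps. Five days later, one step fixed the cells and stained their nuclei (final 0.05% Triton X-100, 1% formaldehyde, 1 ug/ml Hoechst), and nuclei were counted on 4× images. Relative viability is the nuclei count in treated wells divided by the count in vehicle wells, and each value is the median of duplicate plates.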

[2] = compound: C[C@@]1(C(=O)Nc2ccc(F)nc2)CCCN1c1nc(Nc2cc(C3CC3)n[nH]2)c2cccn2n1 + CC(C)C[C@H](NC(=O)[C@H](Cc1ccccc1)NC(=O)c1cnccn1)B(O)O [Bortezomib] (partner 0.002 µM)
Outline: as §1

[3] = compound: CC1(C)CNc2cc(NC(=O)c3cccnc3NCc3ccncc3)ccc21 [Motesanib] + Cc1nc(NC(=O)N2CCC[C@H]2C(N)=O)sc1-c1ccnc(C(C)(C)C(F)(F)F)c1 [Alpelisib] (partner 2 µM)
Outline: as §1

[4] = compound: C[C@@]1(C(=O)Nc2ccc(F)nc2)CCCN1c1nc(Nc2cc(C3CC3)n[nH]2)c2cccn2n1 + C[C@]1(O)C[C@@H](c2nc(-c3ccc4ccc(-c5ccccc5)nc4c3)c3c(N)nccn32)C1 [Linsitinib] (partner 1 µM)
Outline: as §1

Row | Cell Line | relative viability ([1]; first compound 0.01 µM) | relative viability ([1]; first compound 0.03162 µM) | relative viability ([1]; first compound 0.1 µM) | relative viability ([1]; first compound 0.3162 µM) | relative viability ([1]; first compound 1 µM) | relative viability ([2]; first compound 0.04 µM) | relative viability ([2]; first compound 0.1265 µM) | relative viability ([2]; first compound 0.4 µM) | relative viability ([2]; first compound 1.265 µM) | relative viability ([3]; first compound 0.01 µM) | relative viability ([3]; first compound 0.03162 µM) | relative viability ([3]; first compound 0.1 µM) | relative viability ([3]; first compound 0.3162 µM) | relative viability ([3]; first compound 1 µM) | relative viability ([4]; first compound 0.04 µM) | relative viability ([4]; first compound 0.1265 µM) | relative viability ([4]; first compound 0.4 µM) | relative viability ([4]; first compound 1.265 µM)
1 | NCI-H1975 | 0.756 | 0.667 | 0.761 | 0.682 | 0.781 | 0.344 | 0.34 | 0.299 | 0.308 | 0.681 | 0.588 | 0.615 | 0.61 | 0.675 | 0.913 | 0.922 | 0.933 | 0.727
2 | Calu-6 | 0.56 | 0.603 | 0.456 | 0.546 | 0.536 | 1.01 | 0.957 | 0.929 | 0.359 | 0.984 | 0.931 | 0.928 | 1.02 | 1.03 | 0.91 | 0.895 | 0.833 | 0.859
3 | NCI-H1993 | 1.03 | 0.94 | 1.03 | 1.06 | 1.08 | 0.797 | – | 0.615 | 0.674 | 0.656 | 0.659 | 0.765 | 0.697 | 0.642 | 0.705 | – | 0.723 | 0.733
4 | RERF-LC-KJ | 0.981 | 0.991 | 0.896 | 1.08 | 1.04 | 0.919 | 0.872 | 0.907 | 0.878 | 0.814 | 0.805 | 0.854 | 0.642 | 0.86 | 0.868 | 0.818 | 0.838 | 0.857
5 | NCI-H23 | 0.354 | 0.299 | 0.308 | 0.281 | 0.348 | 0.642 | 0.44 | 0.472 | 0.442 | 0.798 | 0.481 | – | 0.639 | 0.603 | 0.612 | 0.5 | 0.484 | 0.613
6 | HCC-366 | 0.278 | 0.375 | 0.403 | 0.352 | 0.397 | 1.06 | 1.04 | 1 | 0.802 | 0.445 | 0.422 | 0.449 | 0.424 | 0.321 | 0.732 | 0.446 | 0.459 | 0.677
7 | EMC-BAC-2 | 0.482 | 0.516 | 0.494 | 0.471 | 0.474 | 0.948 | 0.871 | 0.804 | 0.78 | 0.76 | 0.742 | 0.768 | 0.731 | 0.704 | 0.808 | 0.897 | 0.795 | 0.884
8 | NCI-H2405 | 0.741 | 0.808 | 0.859 | 0.837 | 0.832 | 1 | 0.682 | 0.835 | 0.896 | – | 0.738 | 0.745 | 0.86 | 0.942 | 1.04 | 0.91 | 0.779 | 0.766
9 | EPLC-272H | 0.779 | 1.33 | 0.759 | 0.689 | 0.745 | 0.859 | 0.78 | 0.702 | 0.878 | 0.908 | 1.12 | 0.898 | 0.897 | 0.914 | 1.39 | 1.07 | 1.12 | 1.58
